{"source": "patent US20070248696A1", "about": "“Composition and method for enhancing neuromuscular facilitation and cognitive functions” (priority 2006, published 2007)", "origin": "cited, not measured here", "key": {"[1]": {"conditions": "in vivo"}, "[2]": {"conditions": "relative to vitamin E"}, "[3]": {"conditions": "relative to vitamin E", "remark": "listed apart in the source"}}, "data": [{"smiles": "C[N+](C)(C)CCOP(=O)(O)OP(=O)([O-])OC[C@H]1O[C@@H](n2ccc(N)nc2=O)[C@H](O)[C@@H]1O", "note": "[CDP-choline, cytidine 5′-diphosphocholine]", "values": [{"measurement": "motor performance and coordination in the rotorod and open field tests", "setting": "[1]", "result": "improves motor performance and coordination"}]}, {"smiles": "O=C(O[C@@H]1Cc2c(O)cc(O)cc2O[C@@H]1c1cc(O)c(O)c(O)c1)c1cc(O)c(O)c(O)c1", "note": "[EGCG, (−)-epigallocatechin-3-gallate]", "values": [{"measurement": "more powerful than vitamin E in neutralizing pro-oxidants and free radicals that attack lipids", "setting": "[2]", "result": "over 200 times"}, {"measurement": "more potent than vitamin E in reducing oxidation", "setting": "[3]", "result": 20, "unit": "times"}]}]}
